The data set concerns rodent carcinogenicity bioassays, tumor incidence. The data set is described as follows: CCRIS carcinogenicity studies. In outline: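 NCI-built, expert-reviewed records of carcinogenicity and related test outcomes (mutagenicity, tumor promotion/inhibition) compiled from published and report sources, historical span 1985-2011, not updated.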

Experimental findings from PubChem BioAssay AID1259411 (Chemical Carcinogenesis Research Information System (CCRIS), 2018) are described below.

The source made the active and inactive calls. The rule behind the calls is not given here.

For `Cc1cc(-c2ccccc2C)ccc1N`, the carcinogen call was “active; positive” (Species: HAMSTER, Strain/Sex: SYRIAN/FEMALE, Route: SUBCUTANEOUS, Dose: 0, 100 MG/KG BW 1/WK FOR 20 WK (STUDY DURATION: 50 WK), Tumor Site: Type of Lesion: URINARY BLADDER: CARCINOMA); “active; positive” (Species: HAMSTER, Strain/Sex: SYRIAN/FEMALE, Route: SUBCUTANEOUS, Dose: 0.15 MMOL/KG IN PEANUT OIL 1/WK FOR 37 WK (TOTAL DOSE: 5.6 MMOL/KG), Tumor Site: Type of Lesion: URINARY BLADDER: TRANSITIONAL CELL CARCINOMA, SQUAMOUS CELL CARCINOMA); “active; positive” (Species: HAMSTER, Strain/Sex: SYRIAN/MALE,FEMALE, Route: SUBCUTANEOUS, Dose: 100 MG/KG 1/WK FOR 52 WK, Tumor Site: Type of Lesion: URINARY BLADDER: PAPILLOMA, CARCINOMA); “active; positive” (Species: HAMSTER, Strain/Sex: SYRIAN/MALE, Route: SUBCUTANEOUS, Dose: 0, 100 MG/KG BW 1/WK FOR 20 WK (STUDY DURATION: 50 WK), Tumor Site: Type of Lesion: URINARY BLADDER: CARCINOMA); “active; positive” (Species: HAMSTER, Strain/Sex: SYRIAN/MALE, Route: SUBCUTANEOUS, Dose: 0, 100 MG/KG IN PEANUT OIL 1/WK FOR 8 WK, THEN ONCE EVERY 2 WK FOR 18 MO (TOTAL MAXIMUM DOSE: 555 MG), Tumor Site: Type of Lesion: URINARY BLADDER: TRANSITIONAL CELL CARCINOMA, FORESTOMACH: SQUAMOUS CELL PAPILLOMA, INTESTINES (SMALL): ADENOCARCINOMA;, Tumor Site: Type of Lesion: URINARY BLADDER: TRANSITIONAL CELL CARCINOMA, FORESTOMACH: SQUAMOUS CELL PAPILLOMA, INTESTINES (SMALL): ADENOCARCINOMA); “active; positive” (Species: HAMSTER, Strain/Sex: SYRIAN/MALE, Route: SUBCUTANEOUS, Dose: 0.15 MMOL/KG IN PEANUT OIL 1/WK FOR 37 WK (TOTAL DOSE: 5.6 MMOL/KG), Tumor Site: Type of Lesion: URINARY BLADDER: TRANSITIONAL CELL CARCINOMA). Further, the carcinogen call runs as follows: (Species: RAT, Strain/Sex: ALBINO/MALE, Route: SUBCUTANEOUS, Dose: 2.8-3.5 G/KG, Tumor Site: Type of Lesion: INTESTINES, SALIVARY GLAND, EAR (DUCT), Tumor Site: Type of Lesion: INTESTINES, SALIVARY GLAND, EAR (DUCT)) “active; positive”; (Species: RAT, Strain/Sex: F344/MALE, Route: SUBCUTANEOUS, Dose: 0, 150 MG/KG 1/WK FOR 3 WK FOLLOWED BY HIGH FAT DIET (20% CORN OIL) BEGINNING 12 WK POST LAST CARCINOGEN DOSE AND CONTIN, Tumor Site: Type of Lesion: PANCREAS: ADENOMA OR CARCINOMA) “active; positive”; (Species: RAT, Strain/Sex: F344/MALE, Route: SUBCUTANEOUS, Dose: 0, 150 MG/KG 1/WK FOR 3 WK FOLLOWED BY NORMAL FAT DIET (4.5% CORN OIL) BEGINNING 12 WK POST LAST CARCINOGEN DOSE AND CON, Tumor Site: Type of Lesion: PANCREAS: ADENOMA OR CARCINOMA) “active; positive”; (Species: RAT, Strain/Sex: F344/MALE, Route: SUBCUTANEOUS, Dose: 20 MG/KG 1/WK FOR 42 WK OR 50 MG/KG 1/WK FOR 20 WK, Tumor Site: Type of Lesion: PROSTATE GLAND: CARCINOMA (IN SITU)) “active; positive”; (Species: RAT, Strain/Sex: WISTAR/FEMALE, Route: SUBCUTANEOUS, Dose: 2 MG/100 G 5/WK FOR 12 WK, Tumor Site: Type of Lesion: MAMMARY GLAND: CARCINOMA) “active; positive”; (Species: RAT, Strain/Sex: WISTAR/MALE,FEMALE, Route: SUBCUTANEOUS, Dose: 2 MG/100 G 5/WK FOR LIFE, Tumor Site: Type of Lesion: INTESTINES (LARGE): POLYPLOID TUMOR (MULTIPLE)) “active; positive”.
As to `Clc1ccc2c(c1)C(c1ccccc1)=NCc1nncn1-2`, the carcinogen call is “inactive; negative” (Species: MOUSE, Strain/Sex: B6C3F1/FEMALE, Route: ORAL, Dose: 0, 0.8, 3, 10 MG/KG IN DIET FOR 2 YR (STUDY DURATION: 2 YR), Dose: 0, 0.8, 3, 10 MG/KG IN DIET FOR 2 YR (STUDY DURATION: 2 YR)); “inactive; negative” (Species: MOUSE, Strain/Sex: B6C3F1/FEMALE, Route: ORAL, Dose: 0, 0.8, 3, 10 MG/KG/D IN DIET FOR 2 YR (STUDY DURATION: 2 YR), Dose: 0, 0.8, 3, 10 MG/KG/D IN DIET FOR 2 YR (STUDY DURATION: 2 YR)); “inactive; negative” (Species: MOUSE, Strain/Sex: B6C3F1/MALE, Route: ORAL, Dose: 0, 0.8, 3, 10 MG/KG IN DIET FOR 2 YR (STUDY DURATION: 2 YR), Dose: 0, 0.8, 3, 10 MG/KG IN DIET FOR 2 YR (STUDY DURATION: 2 YR)); “inactive; negative” (Species: MOUSE, Strain/Sex: B6C3F1/MALE, Route: ORAL, Dose: 0, 0.8, 3, 10 MG/KG/D IN DIET FOR 2 YR (STUDY DURATION: 2 YR), Dose: 0, 0.8, 3, 10 MG/KG/D IN DIET FOR 2 YR (STUDY DURATION: 2 YR)); “inactive; negative” (Species: RAT, Strain/Sex: SPRAGUE-DAWLEY/FEMALE, Route: ORAL, Dose: 0, 0.5, 2, 10 MG/KG IN DIET FOR 2 YR (STUDY DURATION: 2 YR), Dose: 0, 0.5, 2, 10 MG/KG IN DIET FOR 2 YR (STUDY DURATION: 2 YR)); “inactive; negative” (Species: RAT, Strain/Sex: SPRAGUE-DAWLEY/MALE, Route: ORAL, Dose: 0, 0.5, 2, 10 MG/KG IN DIET FOR 2 YR (STUDY DURATION: 2 YR), Dose: 0, 0.5, 2, 10 MG/KG IN DIET FOR 2 YR (STUDY DURATION: 2 YR)). For the same compound, the carcinogen call reads like this: (Species: RAT, Strain/Sex: STRAIN-CD/FEMALE, Route: ORAL, Dose: 0, 0.5, 2, 10 MG/KG/D IN DIET FOR 2 YR (STUDY DURATION: 2 YR), Dose: 0, 0.5, 2, 10 MG/KG/D IN DIET FOR 2 YR (STUDY DURATION: 2 YR)) “inactive; negative”; (Species: RAT, Strain/Sex: STRAIN-CD/MALE, Route: ORAL, Dose: 0, 0.5, 2, 10 MG/KG/D IN DIET FOR 2 YR (STUDY DURATION: 2 YR), Dose: 0, 0.5, 2, 10 MG/KG/D IN DIET FOR 2 YR (STUDY DURATION: 2 YR)) “inactive; negative”.
